Measurements reported in US20220010352A1, “ANIMAL MODELS AND SCREENING METHODS FOR INTRAOCULAR DISEASE OR DISORDER” (ZHUHAI QlWEl BIO-TECHNOLOGY LTD., priority 2018, published 2022).
“Also recorded” adds a separate entry of the source.

Tests used:
Bacillus megaterium [1] = assay: antibiotic sensitivity screening test in petri dishes (minimum inhibitory concentration method); assay type: cell-based; conditions: MIC method, 10^-1 to 10^-5 mg/mL in medium, FIG. 1
Procedure: The bacterial culture medium (HuanKai Microbial, Guangzhou, China) containing peptone 5 g, beef extract 3 g, NaCl 5 g, agar 15 g, and MnSO4 5 mg in 1 L ddH2O (pH=7.2) was prepared in conical flask (Drtech, Guangzhou, China) and was sterilized in the autoclave (HIRAYAMA, HEV-50, Japan) at 121° C. for 30 min. Bacillus megaterium (total 1*10^7 per culture) was cultured in the incubator (HettCube 200, Germany) at 37° C. for 24 h.
To test whether antibiotics can control the growth of Bacillus megaterium in vitro and in vivo, we first carried out an antibiotic sensitivity screening test in petri dishes which were made in example 1. The sensitivity of Bacillus megaterium to several major antimicrobial agents including ampicillin, vancomycin, neomycin, metronidazole and tetracycline were examined using the minimum inhibitory concentration (MIC) method. Ampicillin, vancomycin, neomycin, metronidazole, and tetracycline (purchased from Sigma, USA) at various concentrations (10^−1, 10^−2, 10^−3, 10^−4, 10^−5 mg/mL) were added into cooled medium.

Bacillus megaterium [2] = assay: Bacillus megaterium subretinal inoculation model, bacteria-induced drusenoid pathology in retinal tissues; assay type: in vivo, Macaca fascicularis; conditions: intravitreous, 0.5 mg, one injection on Day 2 post bacterial inoculation; macaque; compared to control; FIG. 8
Procedure: The macaques were sedated by intramuscular injection of a mixture of tiletamine hydrochloride (2.5 mg/kg) and xolazepam hydrochloride (2.5 mg/kg). After instilling topical anesthesia (0.5% proparacaine hydrochloride), the eyes were immediately visualized in vivo using a light microscope. The pupils were then dilated with 0.5% tropicamide and 0.5% phenylephrine to obtain the fundus photographs. […] Under microscopic monitoring, 20 μl of PBS (with or without bacteria) was injected into the subretinal space between photo receptors and RPE (retinal pigment epithelium), using a NanoFil Syringe Nanofil-100 for Microinjection (World Precision Instruments, USA). All procedures were done using sterile instruments. The macaque was euthanized 47 days post inoculation and the eyeball was enucleated for histological analyses. The eyeballs were fixed in 4% paraformaldehyde for 48 h and then embedded in paraffin. Sections were cut on a microtome at 6 μm and stained with H&E.
We examined whether subretinal inoculation of AH and VH cultures, as well as the cultured single species of B. megaterium led to AMD like pathology in macaque. About 20 CFU of bacteria (in 20 μl PBS) from AH, VH, and B. megaterium cultures were injected subretinally and PBS was used as a control (illustrated in FIG. 6). […]

[3] = ocular complications after intraocular administration in monkey; assay type: in vivo; conditions: data not shown
From the text: Next, we used the Bacillus megaterium subretinal inoculation model to test whether antibiotics might be able to change the bacteria-induced drusenoid pathology in monkey retinal tissues.

Cc1ncc([N+](=O)[O-])n1CCO [metronidazole]
effectiveness in controlling the growth of Bacillus megaterium, fold less effective (relative to neomycin) (Bacillus megaterium [1]): 10000 fold

CN[C@H](CC(C)C)C(=O)N[C@H]1C(=O)N[C@@H](CC(N)=O)C(=O)N[C@H]2C(=O)N[C@H]3C(=O)N[C@H](C(=O)N[C@H](C(=O)O)c4cc(O)cc(O)c4-c4cc3ccc4O)[C@H](O)c3ccc(c(Cl)c3)Oc3cc2cc(c3O[C@@H]2O[C@H](CO)[C@@H](O)[C@H](O)[C@H]2O[C@H]2C[C@](C)(N)[C@H](O)[C@H](C)O2)Oc2ccc(cc2Cl)[C@H]1O [vancomycin]
size of drusenoid lesion in retinal tissue (Bacillus megaterium [2]): reduction in the size of drusenoid lesion

neomycin
sensitivity of Bacillus megaterium to antimicrobial agent / in vitro activity controlling the expansion of Bacillus megaterium (Bacillus megaterium [1]; 37° C. 24 h): most sensitive; also recorded: best in vitro activity
ocular complications [3]: significant ocular complications including ophthalmatrophia
